Structures can show the parent of a compound that is named as a salt. Where two headings read alike, the source gives them in different places.
Tests used:
[1] = solubility in water, alcohols and methylene chloride; type: physicochemical; settings: description of product and starting materials
[2] = background statement, cited from earlier work; for solubility in alcohol: alcohol(s)

solubility in alcohols [1]	solubility in methylene chloride [1]	solubility in water [1]	Compound	solubility in alcohol [2]	solubility in water [2]
soluble	insoluble	slightly soluble	carbetapentane tannate		
			CCN(CC)CCOCCOC(=O)C1(c2ccccc2)CCCC1 [carbetapentane citrate]	slightly soluble	freely soluble
soluble	soluble	insoluble	CCN(CC)CCOCCOC(=O)C1(c2ccccc2)CCCC1 [carbetapentane, 2-(diethylaminoethoxy)ethyl-1-phenyl-1-cyclopentanecarboxylate]		insolubility
soluble	insoluble	soluble	O=C(OC[C@H]1O[C@@H](OC(=O)c2cc(O)c(O)c(OC(=O)c3cc(O)c(O)c(O)c3)c2)[C@H](OC(=O)c2cc(O)c(O)c(OC(=O)c3cc(O)c(O)c(O)c3)c2)[C@@H](OC(=O)c2cc(O)c(O)c(OC(=O)c3cc(O)c(O)c(O)c3)c2)[C@@H]1OC(=O)c1cc(O)c(O)c(OC(=O)c2cc(O)c(O)c(O)c2)c1)c1cc(O)c(O)c(OC(=O)c2cc(O)c(O)c(O)c2)c1 [tannic acid]	highly soluble	highly soluble

From patent US6455727B1, “Process for preparing carbetapentane tannate” (Jame Fine Chemicals, Inc., priority 2001, dated 2002)
